# Assays:
# [1] = Solubility of DMPA in solvents and solvent blends (mixed on shaker, appearance observed); assay type: physicochemical; conditions: for affinity in terms of solubility toward DMPA: neat solvent, weight ratio solvent:DMPA 9:1, room temperature (23° C.), FIG. 2
# Procedure: At room temperature (23° C.), 1 gram (g) of DMPA and 9 g solvent are added into a glass bottle and mixed on a shaker for 30 minutes. After shaking, the appearance of the mixture in each bottle is observed for solubility. The solvent is either neat dialkyl amide or a blend of dialkyl amide with PROGLYDE™ DMM dipropylene glycol dimethyl ether. Blends are prepared in three blend ratios: 2:1, 1:1, and 1:2 ether:dialkyl amide.
# At room temperature (23° C.), 1 g DMPA and various weights of solvent are added into a glass bottle, then mixed for 30 minutes before checking the appearance.
# (§1) The vapor pressures versus temperature profiles of neat PROGLYDE™ DMM dipropylene glycol dimethyl ether, neat N,N-DMPA, and of three different blends of dipropylene glycol dimethyl ether and N,N-DMPA containing 83 wt %, 55 wt %, and 35 wt % dipropylene glycol dimethyl ether respectively are measured in an ebulliometer in the 5-760 millimeters of mercury (mmHg) pressure range by ASTM E1719 to obtain Antoine constants and the normal boiling points of pure components and blends. Pseudo-azeotropes and actual minimum boiling azeotropes are indicated by a normal boiling point which is lower than the boiling point of either of the neat components. The solubility of DMPA in these blends is also evaluated at 25° C. at the DMPA:solvent blend ratio of 1:9. The composition of the blends is detailed in Table 1 below: […]
# [2] = Vapor pressure versus temperature profiles and normal boiling points in ebulliometer (ASTM E1719); assay type: physicochemical
# Procedure: as §1
affinity in terms of solubility toward DMPA [1],normal boiling point [2] [°C],"solubility of DMPA in N,N-DMPA at different weight ratios ([1]; dialkyl amide to DMPA 3:1 to 8:1, 23° C., FIG. 4)",SMILES
,174.931,,"COCC(C)OCC(C)OC (stereo not drawn) [dipropylene glycol dimethyl ether, reference compound]"
good affinity toward DMPA,,,"CCN(CC)C(C)=O [N,N-DEAC, N,N-diethylacetamide]"
good affinity toward DMPA,175.186,can dissolve DMPA effectively,"CCC(=O)N(C)C [N,N-DMPA, N,N-dimethylpropionamide]"

SMILES,affinity in terms of solubility toward DMPA [1],normal boiling point [2] [°C],"solubility of DMPA in N,N-DMPA at different weight ratios ([1]; dialkyl amide to DMPA 3:1 to 8:1, 23° C., FIG. 4)"
"COCCC(=O)N(C)C [M3-N,N-DMPA, 3-methoxy-N,N-dimethyl propionamide]",good affinity toward DMPA,,
